The results in this text go back to ChEMBL document CHEMBL1914370, “A Pd-mediated new strategy to functionalized 2-aminochromenes: their in vitro evaluation as potential anti tuberculosis agents” (Bioorg Med Chem Lett, 2011).

The structures appear in SMILES notation.

The subject of one assay is Mycobacterium tuberculosis H37Rv. Kind of assay: Inhibition of Mycobacterium tuberculosis H37Rv chorismate mutase expressed in Escherichia coli BL21 (DE3) assessed as conversion of chorismate to prephenate at 50 uM after 5 mins by spectrophotometry.
The term inhibition denotes the share of the control response that was lost under treatment. As for `CCCCC#Cc1ccccc1C1C(C#N)=C(N)Oc2c1ccc1ccccc21` (centres undefined), the inhibition was found to be 57%.

For `CC(C)(C)OC(=O)/C=C/c1cccc(C2C(C#N)=C(N)Oc3ccc4ccccc4c32)c1` (centres undefined), the inhibition stood at 64%. In the case of `CCOC(=O)/C=C/c1cccc(C2C(C#N)=C(N)Oc3ccc4ccccc4c32)c1` (centres undefined), the inhibition was 30%. Consider `COC(=O)/C=C/c1cccc(C2C(C#N)=C(N)Oc3ccc4ccccc4c32)c1` (centres undefined), for which the inhibition turned out to be 33%. On the same count and under the same terms, the same measure for `N#CC1=C(N)Oc2c(ccc3ccccc23)C1c1cccc(C#CC2(O)CCCCC2)c1` (centres undefined): 28%.

In the case of `CC(=O)/C=C/c1cccc(C2C(C#N)=C(N)Oc3ccc4ccccc4c32)c1` (centres undefined), the inhibition came to 10%. Take `CCCCCCCCC#Cc1ccccc1C1C(C#N)=C(N)Oc2c1ccc1ccccc21` (centres undefined): the inhibition worked out at 50%. Still for that read-out and setting: then `N#CC1=C(N)Oc2c(ccc3ccccc23)C1c1ccccc1C#CC1(O)CCCCC1` (centres undefined), with 24%; and `N#CC1=C(N)Oc2c(ccc3ccccc23)C1c1cccc(C#CCCCO)c1` (centres undefined), with 32%; and `N#CC1=C(N)Oc2ccc3ccccc3c2C1c1cccc(C#CCCCO)c1` (centres undefined), with 70%. In the case of `CCCCCCC#Cc1ccccc1C1C(C#N)=C(N)Oc2c1ccc1ccccc21` (centres undefined), the inhibition is 55%. The same measure, in the same setting: then `N#CC1=C(N)Oc2ccc3ccccc3c2C1c1cccc(C#CCCO)c1` (centres undefined), with 69%.

System in the next assay: not listed separately
Kind of assay: (§1) Inhibition of Mycobacterium tuberculosis H37Rv chorismate mutase expressed in Escherichia coli BL21 (DE3) assessed as conversion of chorismate to prephenate after 5 mins by spectrophotometry.
In general, IC50 refers to the point on the concentration scale where inhibition reaches its midpoint. Consider `N#CC1=C(N)Oc2ccc3ccccc3c2C1c1cccc(C#CCCCO)c1` (centres undefined), for which the IC50 is 15.6 µM.

Another assay concerns Mycobacterium tuberculosis H37Rv. Described as §1.
With `N#CC1=C(N)Oc2ccc3ccccc3c2C1c1cccc(C#CCCCO)c1` (centres undefined), the inhibition result is “Dose-dependent effect”.
